According to patent publication US20250186456A1, “PYRIMIDINE-FUSED CYCLIC COMPOUND AND PREPARATION METHOD AND USE THEREOF” (Genfleet Therapeutics (Shanghai) Inc., priority 2021, published 2025):
Like-named read-outs stand apart in the source and are kept apart here.

What was measured:
Format in all cases: cell-based, human
[1] = test system: p-ERK in AGS cells (KRAS G12D mutation); assay: Cell p-ERK assay (HTRF, Advance ERK phospho-T202/Y204 kit); settings: AGS cells, 3 hours incubation with compound, HTRF, read-out: AGS p-ERK IC50
In short: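 AGS cells (endogenous KRAS G12D) seeded at ~20000 cells/well overnight, then treated 3 h with 3.16-fold compound dilutions, 0.1% DMSO final. Lysates assayed for phospho-T202/Y204 ERK by HTRF after 4 h antibody incubation; inhibition vs DMSO and blank, IC50 by four-parameter fit.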

AGS cells (KRAS G12D) = assay: Cell proliferation inhibition assay, 3D, CellTiter-Glo 3D, AGS; settings: AGS 3D sphere model, 5 days incubation
In short: (§1)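 Spheroids (800 AsPC-1 or 400 AGS cells/well; RPMI-1640 or F-12K with 10% FBS) formed overnight, then were dosed on day 2 with a 3.16-fold series at 0.1% DMSO. After 5 days, viability was read by CellTiter-Glo 3D luminescence, and IC50 came from four-parameter fits of inhibition versus DMSO control and medium blank.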

[2] = test system: AsPC-1 cells (KRAS G12D mutation); assay: Cell proliferation inhibition assay, 3D, CellTiter-Glo 3D, AsPC-1; settings: AsPC-1 3D sphere model, 5 days incubation
In short: as §1

SMILES | IC50 ([1]; Homo sapiens) | IC50 (AGS cells (KRAS G12D); Homo sapiens, 120 h) | IC50 ([2]; Homo sapiens, ASPC1, 120 h) | IC50 [1] | IC50 (AGS cells (KRAS G12D)) | IC50 [2]
C#Cc1c(F)ccc2cccc(-c3nc4c5c(nc(OCC67CCCN6CCC7=C(F)F)nc5c3F)N3C[C@H]5CC[C@H](N5)[C@H]3[C@H](C)O4)c12 (stereo partly drawn) [Example Z612, (5S,5aS,6S,9R)-12-((1-(difluoromethylene)tetrahydro-1H-pyrrolizin-7a (5H)-yl)methoxy)-2-(8-ethynyl-7-fluoronaphthalen-1-yl)-1-fluoro-5-methyl-5a,6,7,8,9,10-hexahydro-5H-4-oxa-3,10a, 11,13,14-pentaaza-6,9-methanonaphtho[1,8-ab]heptalene] | 99.3 nM | 65.4 nM | 124 nM |  |  | 
C#Cc1c(F)ccc2cccc(-c3nc4c5c(nc(OCC67CCCN6[C@@H]6C[C@@H]6C7)nc5c3F)N3C[C@H]5CC[C@H](N5)[C@H]3[C@H](C)O4)c12 (stereo partly drawn) [Example Z624, (5S,5aS,6S,9R)-2-(8-ethynyl-7-fluoronaphthalen-1-yl)-1-fluoro-12-(((1aR,6aR)-hexahydrocyclopropa[b]pyrrolizin-5a (3H)-yl)methoxy)-5-methyl-5a,6,7,8,9,10-hexahydro-5H-4-oxa-3,10a, 11, 13, 14-pentaaza-6,9-methanonaphtho[1,8-ab]heptalene] | 47.3 nM | 88.2 nM | 194 nM |  |  | 
C#Cc1c(F)ccc2cccc(-c3nc4c5c(nc(OCC67CCCN6[C@H]6C[C@H]6C7)nc5c3F)N3C[C@H]5CC[C@H](N5)[C@H]3[C@H](C)O4)c12 (stereo partly drawn) [Example Z625, (5S,5aS,6S,9R)-2-(8-Ethynyl-7-Fluoronaphthalen-1-Yl)-1-Fluoro-12-(((1aS,6aS)-Hexahydrocyclopropa[b]Pyrrolizin-Sa (3H)-Yl)Methoxy)-5-Methyl-5a,6,7,8,9,10-Hexahydro-5H-4-Oxa-3,10a,11,13,14-Pentaaza-6,9-Methanonaphtho[1,8-Ab]Heptalene] |  |  |  | 81.9 nM | 107 nM | 405 nM
C#Cc1c(F)ccc2cccc(-c3nc4c5c(nc(OCC67CC8(CC8)CN6CC6(CC6)C7)nc5c3F)N3C[C@H]5CC[C@H](N5)[C@H]3[C@H](C)O4)c12 [Example Z628] | 45.5 nM | 40 nM | 144 nM |  |  | 
C#Cc1c(F)ccc2cccc(-c3nc4c5c(nc(OCC67CC(=C)CN6CC(=C)C7)nc5c3F)N3C[C@H]5CC[C@H](N5)[C@H]3CCO4)c12 [Example Z629] | 50 nM | 51.7 nM | 167 nM |  |  | 
C#Cc1c(F)ccc2cccc(-c3nc4c5c(nc(OCC67CCCN6C6(CC6)CC7)nc5c3F)N3C[C@H]5CC[C@H](N5)[C@H]3[C@H](C)O4)c12 (stereo partly drawn) [Example Z631, (5S,5aS,6S,9R)-2-(8-Ethynyl-7-Fluoronaphthalen-1-Yl)-1-Fluoro-5-Methyl-12-((Tetrahydrospiro[Cyclopropane-1,3′-Pyrrolizin]-7a′ (5′H)-Yl)Methoxy)-5a,6,7,8,9,10-Hexahydro-5H-4-Oxa-3,10a,11,13,14-Pentaaza-6,9-Methanonaphtho[1,8-Ab]Heptalene] | 91.9 nM | 201 nM | 254 nM |  |  | 
C#Cc1c(F)ccc2cccc(-c3nc4c5c(nc(OC[C@@]67CCCN6C[C@H](F)C7)nc5c3F)N3C[C@H]5CC[C@H](N5)[C@H]3[C@H](C)O4)c12 [Example Z632, (5S,5aS,6S,9R)-2-(8-Ethynyl-7-Fluoronaphthalen-1-Yl)-1-Fluoro-12-(((2R,7aS)-2-Fluorotetrahydro-1H-Pyrrolizin-7a (5H)-Yl)Methoxy)-5-Methyl-5a,6,7,8,9,10-Hexahydro-5H-4-Oxa-3,10a,11,13,14-Pentaaza-6,9-Methanonaphtho[1,8-Ab]Heptalene] | 30.4 nM | 26.2 nM | 53.8 nM |  |  | 
C#Cc1c(F)ccc2cccc(-c3nc4c5c(nc(OCC67CC(=C)CN6C[C@H](F)C7)nc5c3F)N3C[C@H]5CC[C@H](N5)[C@H]3[C@H](C)O4)c12 (stereo partly drawn) [Example Z633, (5S,5aS,6S,9R)-2-(8-ethynyl-7-fluoronaphthalen-1-yl)-1-fluoro-12-(((2R)-2-fluoro-6-methylenetetrahydro-1H-pyrrolizin-7a (5H)-yl)methoxy)-5-methyl-5a,6,7,8,9,10-hexahydro-5H-4-oxa-3,10a,11,13,14-pentaaza-6,9-methanonaphtho[1,8-ab]heptalene] | 14.5 nM | 59 nM | 56.7 nM |  |  | 
C#Cc1c(F)ccc2cccc(-c3nc4c5c(nc(OCC67CC8CC8N6CCC7=C)nc5c3F)N3C[C@H]5CC[C@H](N5)[C@H]3[C@H](C)O4)c12 (stereo partly drawn) [Example Z635, (5S,5aS,6S,9R)-2-(8-ethynyl-7-fluoronaphthalen-1-yl)-1-fluoro-5-methyl-12-((5-methylenehexahydrocyclopropa[b]pyrrolizin-5a (3H)-yl)methoxy)-5a,6,7,8,9,10-hexahydro-5H-4-oxa-3,10a, 11,13,14-pentaaza-6,9-methanonaphtho[1,8-ab]heptalene] | 50 nM | 224 nM | 218 nM |  |  | 
C#Cc1c(F)ccc2cccc(-c3nc4c5c(nc(OC[C@@]67CCCN6CC(=C)C7)nc5c3F)N3C[C@H]5CC[C@H](N5)[C@H]3[C@H](C)O4)c12 [Example Z637, (5S,5aS,6S,9R)-2-(8-ethynyl-7-fluoronaphthalen-1-yl)-1-fluoro-5-methyl-12-(((S)-2-methylenetetrahydro-1H-pyrrolizin-7a (5H)-yl)methoxy)-5a,6,7,8,9,10-hexahydro-5H-4-oxa-3,10a,11,13,14-pentaaza-6,9-methanonaphtho[1,8-ab]heptalene] | 48.8 nM | 67.6 nM | 112 nM |  |  | 
C#Cc1c(F)ccc2cccc(-c3nc4c5c(nc(OC[C@@]67CCCN6CCC7=C)nc5c3F)N3C[C@H]5CC[C@H](N5)[C@H]3[C@H](C)O4)c12 [Example Z639, (5S,5aS,6S,9R)-2-(8-ethynyl-7-fluoronaphthalen-1-yl)-1-fluoro-5-methyl-12-(((S)-1-methylenetetrahydro-1H-pyrrolizin-7a (5H)-yl)methoxy)-5a,6,7,8,9,10-hexahydro-5H-4-oxa-3,10a, 11, 13,14-pentaaza-6,9-methanonaphtho[1,8-ab]heptalene] | 33.4 nM | 113 nM | 93.7 nM |  |  | 
C#Cc1c(F)ccc2cccc(-c3nc4c5c(nc(OC[C@]67CCCN6CCC7=C)nc5c3F)N3C[C@H]5CC[C@H](N5)[C@H]3[C@H](C(F)F)O4)c12 [Example Z648, (5R,5aS,6S,9R)-5-(difluoromethyl)-2-(8-etbynyl-7-fluoronaphthalen-1-yl)-1-fluoro-12-(((R)-1-methylenetetrahydro-1H-pyrrolizin-7a (5H)-yl)methoxy)-5a,6,7,8,9,10-hexahydro-5H-4-oxa-3,10a, 11,13,14-pentaaza-6,9-methanonaphtho[1,8-ab]heptalene] |  |  |  | 14.6 nM | 39.1 nM | 53.5 nM
C#Cc1c(F)ccc2cccc(-c3nc4c5c(nc(OCC67CC(=C)CN6C[C@H](F)C7)nc5c3F)N3C[C@H]5CC[C@H](N5)[C@H]3[C@H](CO)O4)c12 (stereo partly drawn) [Example Z654, ((5R,5aS,6S,9R)-2-(8-ethynyl-7-fluoronaphthalen-1-yl)-1-fluoro-12-(((2R)-2-fluoro-6-methylenetetrahydro-1H-pyrrolizin-7a (5H)-yl)methoxy)-5a,6,7,8,9,10-hexahydro-5H-4-oxa-3,10a,11,13,14-pentaaza-6,9-methanonaphtho[1,8-ab]heptalen-5-yl)methanol] | 136 nM | 726 nM | 389 nM |  |  | 
C#Cc1c(F)ccc2cccc(-c3nc4c5c(nc(OCC67CC(O)CN6CCC7=C)nc5c3F)N3C[C@H]5CC[C@H](N5)[C@H]3[C@H](C)O4)c12 (stereo partly drawn) [Example Z674, 7a-((((5S,5aS,6S,9R)-2-(8-ethynyl-7-fluoronaphthalen-1-yl)-1-fluoro-5-methyl-5a,6,7,8,9,10-hexahydro-5H-4-oxa-3,10a, 11, 13, 14-pentaaza-6,9-methanonaphtho[1,8-ab]heptalen-12-yl)oxy)methyl)-7-methylenehexahydro-1H-pyrrolizin-2-ol] | 10.7 nM | 108 nM | 475 nM |  |  | 
C#Cc1c(F)ccc2cccc(-c3nc4c5c(nc(OCC67C[C@@H](F)CN6CCC7=C)nc5c3F)N3C[C@H]5CC[C@H](N5)[C@H]3[C@H](C)O4)c12 (stereo partly drawn) [Example Z675, (5S,5aS,6S,9R)-2-(8-ethynyl-7-fluoronaphthalen-1-yl)-1-fluoro-12-(((6R)-6-fluoro-1-methylenetetrahydro-1H-pyrrolizin-7a (5H)-yl)methoxy)-5-methyl-5a,6,7,8,9,10-hexahydro-5H-4-oxa-3,10a,11,13,14-pentaaza-6,9-methanonaphtho[1,8-ab]heptalene] | 11.1 nM | 31.2 nM | 31.2 nM |  |  | 
C#Cc1cccc2cccc(-c3nc4c5c(nc(OC[C@]67CCCN6CCC7=C)nc5c3F)N3C[C@H]5CC[C@H](N5)[C@H]3[C@H](C)O4)c12 [Example Z677, (5S,5aS,6S,9R)-2-(8-ethynylnaphthalen-1-yl)-1-fluoro-5-methyl-12-(((R)-1-methylenetetrahydro-1H-pyrrolizin-7a (5H)-yl)methoxy)-5a,6,7,8,9,10-hexahydro-5H-4-oxa-3,10a,11,13,14-pentaaza-6,9-methanonaphtho[1,8-ab]heptalene] | 185 nM | 795 nM | 981 nM |  |  | 
